{"source": "patent US8802082B2", "about": "“Rhodamine derivatives for photodynamic diagnosis and treatment” (Université de Montreal, priority 1999, dated 2014)", "key": {"[1]": {"test_system": "activated lymphocytes", "assay": "Cellular content/efflux of TH9402 by flow cytometry, activated lymphocytes", "assay_type": "cell-based, human", "conditions": "10 μM TH9402, wash with 1 μg/ml cyclosporin-A, 110 minutes", "experimental": "TH9402 cellular content in resting and activated lymphocytes was evaluated by flow-cytometry, since the intensity of TH9402 (green) fluorescence correlates with the cellular content in TH9402. Briefly, 10^6 cells/ml, previously activated or not with PHA, were incubated in X-vivo-5 medium supplemented with 2.5% human AB serum and 10 μM TH9402 for 40 minutes. These cells were washed two times with X-vivo medium supplemented with 10% AB serum and cells analysed by flow cytometry 30, 50, 70, 90 and 110 min after the end of the TH9402 incorporation period. […] Since cellular concentration of TH9402 correlates with the extent of cell elimination, the high concentration of TH9402 maintained in activated lymphocytes explains their sensitivity to photodynamic therapy. In contrast, the rapid efflux of TH9402 from resting lymphocytes should explain preservation of their proliferative activity.\nIn order to identify the mechanism responsible for the differential retention of TH9402 between activated and resting lymphocytes, cyclosporin-A was used to block the multidrug transporter (P-gp 170). These cells were incubated with 10 μM TH9402 for 8 minutes, and washed with medium containing 1 μg/ml cyclosporin-A or medium alone. TH9402 retention was subsequently evaluated by flow-cytometry (green fluorescence) (FIG. 5). […]"}, "[2]": {"test_system": "PHA-activated PB mononuclear cells", "assay": "Phototoxicity against PHA-activated PB mononuclear cells (mixed lymphocyte reaction, 3H-thymidine; cell counts)", "assay_type": "cell-based, human", "experimental": "Suspensions of cells were then incubated with 10 μM TH9402 for 40 minutes at 37° C. Cells were treated at 1×10^6 cells/mL in X-vivo-15 medium without phenol red (BioWhittaker, Walkersville, Md., USA) supplemented with 2,5% FBS. At the end of the incubation period, cells were spun down and the cell pellet resuspended in the X-vivo culture medium in the absence of dye, supplemented with 10% FBS. Cells were then placed in T-flasks (Corning, Cambridge, Mass., USA) for 90 minutes at 37° C. […]\nNormal PBMC were activated by incubation at 37° C. for 48 to 72 hours in X-vivo-15 medium (Biowhittaker, Walkersville. Md. U.S.A.) supplemented with 20% AB serum (Sigma), 1% pen-strep (Gibco), 2% glutamin (Gibco) and 20 μg/ml of phytohemagglutinin-A (PHA-P)(Sigma). […] Following incubation, cells were washed and treated with the TH9402 photodynamic treatment as described above, and proliferative activity measured as described below.\nThe latter cells were serially diluted in order to obtain effector (treated cells) to target ratios ranging from 2:1 to 1:4 (4×10^4 treated effector cells/well) and incubated at 37° C. for 5 days. […] Radioactivity in the cell harvest was counted using a liquid scintillation counter (Beckman, Chicago, Ill., USA).\nThe phototoxicity of TH9402 against PHA-activated PB mononuclear cells was assessed after photodynamic treatment using 5 and 7.5 joules/cm^2 of light energy (FIG. 2). […]"}, "[3]": {"test_system": "CEM T cell acute lymphoblastic leukemia cell line", "assay": "Phototoxicity of TH9402, limiting dilution assay of clonogenic cells, CEM admixed with irradiated PBMC", "assay_type": "cell-based", "conditions": "10 μM TH9402 40 min, 90 min dye-free, 5 joules/cm^2, LDA 12-14 days", "experimental": "T cells represent the most important population of immune cells present in the peripheral blood. […] Phototoxicity was also evaluated in parallel against the chronic myelogenous leukemia cell line K562, that had been used in U.S. Pat. Nos. 5,556,992 and 5,773,460. The CEM T cell acute lymphoblastic leukemia cell line and K562 chronic myelogeneous leukemia cell line (Lozzio, B. B. and Lozzio, C. B. (1979) Cancer Res., 3(6): 363-370) were obtained from the American Type Culture Collection (ATCC, 12301 Parklawn Drive, Rockville, Md. 20852 USA) under the accession number CCL-119 and CCL-243. Cultures were maintained at 37° C. in a humidified incubator with an atmosphere of 95% air and 5% CO2. […] Before each experiment, cell viability was assessed by trypan blue exclusion. […]\nTo assess the photochemotherapeutic potential and the in vitro phototoxicity of 4,5-dibromorhodamine 123 hydrobromide (TH9402), the T cell line CEM and the leukemic line K562 admixed with normal irradiated PBMC were incubated with TH9402 and exposed to 5 joules/cm^2 of light (as described above). […] Growth at each serial dilution was assessed in an “all-or-nothing” (positive or negative) fashion under an inverted phase microscope. […]"}}}
{"compound": "Br.COC(=O)c1ccccc1-c1c2ccc(=N)c(Br)c-2oc2c(Br)c(N)ccc12", "note": "[TH9402, 4,5-dibromorhodamine 123 (2-(4,5-dibromo-6-amino-3-imino-3H-xanthen-9-yl)-benzoic acid methyl ester) hydrobromide]", "values": [{"measurement": "fluorescence intensity in activated cells treated or not treated with cyclosporin A", "setting": "[1]", "result": "identical"}, {"measurement": "reactivity towards MHC incompatible cells (proliferation in mixed lymphocyte culture)", "setting": "[2]; PHA-activated cells treated with TH9402, 5 and 7.5 J/cm^2", "result": "abrogated"}, {"measurement": "decrease of cell counts of the treated cells in comparison to the medium control", "setting": "[2]; three days after the photodynamic treatment", "result": "> 90", "unit": "%"}, {"measurement": "CEM cells escaping elimination by phototherapy in comparison to the media only sample", "setting": "[3]", "result": "less than 0.1%"}]}
